# Data taken from PubChem BioAssay (NCI).
#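 GI50 is the concentration that inhibits growth by half. The concentration for full growth arrest is given as TGI.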
# Legend:
# Test in all cases: inhibition of tumour cell growth, NCI panel, 384-well format
# ACHN renal = tested on: ACHN renal
# KM12 colon = tested on: KM12 colon
# IGROV1 ovarian = tested on: IGROV1 ovarian
# UACC-62 melanoma = tested on: UACC-62 melanoma
# SK-OV-3 ovarian = tested on: SK-OV-3 ovarian
# HL-60(TB) leukemia = tested on: HL-60(TB) leukemia
# MCF7 breast = tested on: MCF7 breast
# HCT-116 colon = tested on: HCT-116 colon
# SK-MEL-2 melanoma = tested on: SK-MEL-2 melanoma
# HCC-2998 colon = tested on: HCC-2998 colon
# SF-295 CNS = tested on: SF-295 CNS
# RXF 393 renal = tested on: RXF 393 renal
# NCI-H522 lung = tested on: NCI-H522 lung
# RPMI-8226 leukemia = tested on: RPMI-8226 leukemia
# U251 glioblastoma = tested on: U251 glioblastoma
# BT-549 breast = tested on: BT-549 breast
# OVCAR-8 ovarian = tested on: OVCAR-8 ovarian
# HOP-62 NSCLC = tested on: HOP-62 NSCLC
# OVCAR-4 ovarian = tested on: OVCAR-4 ovarian
# HOP-92 NSCLC = tested on: HOP-92 NSCLC
# CAKI-1 renal = tested on: CAKI-1 renal
# NCI-H322M lung = tested on: NCI-H322M lung
# SF-539 CNS = tested on: SF-539 CNS
# LOX IMVI melanoma = tested on: LOX IMVI melanoma
# SW-620 colon = tested on: SW-620 colon
# 786-0 renal = tested on: 786-0 renal
# MDA-MB-468 breast = tested on: MDA-MB-468 breast
# MDA-MB-231 breast = tested on: MDA-MB-231 breast
# PC-3 prostate = tested on: PC-3 prostate
structure (smiles),measurement,setting,value
C[C@H](CCOc1cccc(CC(=O)O)c1)N(Cc1cccc(C(F)(F)F)c1Cl)CC(c1ccccc1)c1ccccc1,GI50,ACHN renal,5 µM
same,TGI,ACHN renal,16.1 µM
same,GI50,KM12 colon,3.76 µM
same,TGI,KM12 colon,12.5 µM
same,GI50,IGROV1 ovarian,5.92 µM
same,TGI,IGROV1 ovarian,18.5 µM
same,GI50,UACC-62 melanoma,9.52 µM
same,TGI,UACC-62 melanoma,21.4 µM
same,GI50,SK-OV-3 ovarian,9.13 µM
same,TGI,SK-OV-3 ovarian,21.2 µM
same,GI50,HL-60(TB) leukemia,2.26 µM
same,TGI,HL-60(TB) leukemia,4.22 µM
same,GI50,MCF7 breast,3.9 µM
same,TGI,MCF7 breast,14 µM
same,GI50,HCT-116 colon,3 µM
same,TGI,HCT-116 colon,11.2 µM
same,GI50,SK-MEL-2 melanoma,14 µM
same,TGI,SK-MEL-2 melanoma,27 µM
same,GI50,HCC-2998 colon,2.58 µM
same,TGI,HCC-2998 colon,7.25 µM
same,GI50,SF-295 CNS,2.64 µM
same,TGI,SF-295 CNS,7.41 µM
same,GI50,RXF 393 renal,2.1 µM
same,TGI,RXF 393 renal,5.24 µM
same,GI50,NCI-H522 lung,2.55 µM
same,TGI,NCI-H522 lung,9.37 µM
same,GI50,RPMI-8226 leukemia,1.5 µM
same,TGI,RPMI-8226 leukemia,2.93 µM
same,GI50,U251 glioblastoma,2.69 µM
same,TGI,U251 glioblastoma,7.64 µM
same,GI50,BT-549 breast,3.27 µM
same,TGI,BT-549 breast,12.7 µM
same,GI50,OVCAR-8 ovarian,4.56 µM
same,TGI,OVCAR-8 ovarian,15.4 µM
same,GI50,HOP-62 NSCLC,3.86 µM
same,TGI,HOP-62 NSCLC,12.9 µM
same,GI50,OVCAR-4 ovarian,5.04 µM
same,TGI,OVCAR-4 ovarian,18.2 µM
same,GI50,HOP-92 NSCLC,2.97 µM
same,TGI,HOP-92 NSCLC,8.88 µM
same,GI50,CAKI-1 renal,6.37 µM
same,TGI,CAKI-1 renal,18.5 µM
same,GI50,NCI-H322M lung,4.7 µM
same,TGI,NCI-H322M lung,17.3 µM
same,GI50,SF-539 CNS,3.92 µM
same,TGI,SF-539 CNS,14.2 µM
same,GI50,LOX IMVI melanoma,4.34 µM
same,TGI,LOX IMVI melanoma,17.5 µM
same,GI50,SW-620 colon,4.66 µM
same,TGI,SW-620 colon,15.7 µM
same,GI50,786-0 renal,4.3 µM
same,TGI,786-0 renal,15.4 µM
same,GI50,MDA-MB-468 breast,3.06 µM
same,TGI,MDA-MB-468 breast,7.76 µM
same,GI50,MDA-MB-231 breast,10.2 µM
same,TGI,MDA-MB-231 breast,21.9 µM
same,GI50,PC-3 prostate,4.33 µM
